Results: paper doi:10.1101/2023.05.15.540828, “Optimization of 3-Cyano-7-cyclopropylamino-pyrazolo[1,5-a]pyrimidines Toward the Development of an In Vivo Chemical Probe for CSNK2A” (bioRxiv, 2023)

Key:
[1] = target: T1, CSNK2A1 (Homo sapiens, UniProt P68400); assay: NanoBRET in-cell target engagement, Tracer K10 displacement, HEK293; type: cell-based
T1 construct: CSNK2A-NLuc fusion

[2] = target: T2, CSNK2A2 (Homo sapiens, UniProt P19784); assay: as above; type: cell-based
T2 construct: CSNK2A-NLuc fusion
T2 sequence (P19784 whole entry, the tested form may be a part): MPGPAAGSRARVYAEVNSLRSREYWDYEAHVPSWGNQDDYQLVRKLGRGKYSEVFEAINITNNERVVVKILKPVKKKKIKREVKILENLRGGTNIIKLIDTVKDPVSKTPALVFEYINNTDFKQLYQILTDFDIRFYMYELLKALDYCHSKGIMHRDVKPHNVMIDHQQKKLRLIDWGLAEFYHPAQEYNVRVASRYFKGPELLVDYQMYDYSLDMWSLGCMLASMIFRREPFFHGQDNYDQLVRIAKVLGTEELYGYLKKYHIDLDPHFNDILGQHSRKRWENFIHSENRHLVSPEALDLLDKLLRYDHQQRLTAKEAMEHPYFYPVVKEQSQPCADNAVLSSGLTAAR

T1 sequence (P68400 whole entry, the tested form may be a part): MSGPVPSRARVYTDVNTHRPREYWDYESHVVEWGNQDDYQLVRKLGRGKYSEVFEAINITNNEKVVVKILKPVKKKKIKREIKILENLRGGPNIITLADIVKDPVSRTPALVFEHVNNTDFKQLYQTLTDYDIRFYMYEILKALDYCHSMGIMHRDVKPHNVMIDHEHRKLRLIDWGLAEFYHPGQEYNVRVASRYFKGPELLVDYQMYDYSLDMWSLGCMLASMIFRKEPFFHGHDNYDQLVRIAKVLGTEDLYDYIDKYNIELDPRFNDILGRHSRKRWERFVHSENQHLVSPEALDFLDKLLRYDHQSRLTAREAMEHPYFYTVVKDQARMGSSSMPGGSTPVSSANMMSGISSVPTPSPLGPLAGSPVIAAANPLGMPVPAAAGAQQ

Row | Compound | [drawing 10] / CSNK2A1 pIC50^a [1] | [drawing 10] / CSNK2A2 pIC50^a [2]
1 | CN[C@H]1CCCN(c2ccc(Nc3cc(NC4CC4)n4ncc(C#N)c4n3)cc2NC(C)=O)C1 [2c, (S)-N-(5-((3-cyano-7-(cyclopropylamino)pyrazolo[1,5-a]pyrimidin-5-yl)amino)-2-(3-(methylamino)piperidin-1-yl)phenyl)acetamide] | 8.3 pIC50 | 8.4 pIC50
2 | CN[C@@H]1CCN(c2ccc(Nc3cc(NC4CC4)n4ncc(C#N)c4n3)cc2NC(C)=O)C1 [2d, (R)-N-(5-((3-cyano-7-(cyclopropylamino)pyrazolo[1,5-a]pyrimidin-5-yl)amino)-2-(3-(methylamino)pyrrolidin-1-yl)phenyl)acetamide] | 8.6 pIC50 | 8.8 pIC50
3 | CN[C@H]1CCN(c2ccc(Nc3cc(NC4CC4)n4ncc(C#N)c4n3)cc2NC(C)=O)C1 [2e, (S)-N-(5-((3-cyano-7-(cyclopropylamino)pyrazolo[1,5-a]pyrimidin-5-yl)amino)-2-(3-(methylamino)pyrrolidin-1-yl)phenyl)acetamide] | 8.3 pIC50 | 8.4 pIC50
4 | CC(=O)Nc1cc(Nc2cc(NC3CC3)n3ncc(C#N)c3n2)ccc1N(C)C[C@@H]1CCCN1 [2f, (S)-N-(5-((3-cyano-7-(cyclopropylamino)pyrazolo[1,5-a]pyrimidin-5-yl)amino)-2-(methyl(pyrrolidin-2-ylmethyl)amino)phenyl)acetamide] | 8.4 pIC50 | 8.5 pIC50
5 | CC(=O)Nc1cc(Nc2cc(NC3CC3)n3ncc(C#N)c3n2)ccc1N[C@@H]1CCCOC1 [2m, (R)-N-(5-((3-cyano-7-(cyclopropylamino)pyrazolo[1,5-a]pyrimidin-5-yl)amino)-2-((tetrahydro-2H-pyran-3-yl)amino)phenyl)acetamide] | 8.0 pIC50 | 8.1 pIC50
